Experimental data: PMC11085442 (Molecules, 2024)
Converted amounts (≈) assume the structure as drawn.

Experiments:
[1] = tested on: LPS-stimulated RAW264.7 cell lines; test: LPS-induced NO production (Griess) in RAW264.7; type: cell-based, murine; settings: for The production of NO: LPS group 49.86 ± 0.62, control 1.20 ± 0.38; for inhibitory activity against NO production compared with curcumin: 10 μM
Experimental: RAW 264.7 cells were plated in 96-well plates at a density of 1 × 10^4 cells/well and incubated overnight at 37 °C under 5% CO2. […] Dexamethasone (Solarbio, D8040, Beijing, China) was used as the positive control. Then, 24 h later, NO production was determined by measuring the nitrite content using Griess reagents. Fifty microliters of culture supernatants were transferred to 96-well plates and mixed with 50 μL Griess reagent A. After incubation at room temperature for 5 min, the samples were mixed with an equal volume Griess reagent B for another 5 min. The absorbance of each mixture at 540 nm was measured using a microplate reader.

[2] = tested on: H2O2-stimulated PC 12 cell lines; test: Protection against H2O2-induced oxidative damage (CCK-8); type: cell-based, rat; settings: for anti-oxidant capacity compared with curcumin: 10 μM; for anti-oxidant capacity compared with curcumin / cell survival rate (anti-oxidant): H2O2-stimulated PC 12; for Cell viability / viability at 5 µM / viability at 10 µM / viability at 20 µM: H2O2-induced oxidative damage, PC 12, H2O2 group 49.69 ± 1.37, control 100; for Cell viability: in % (unit assumed); for cell survival rate (anti-oxidant): at 10 μM; for viability at 5 µM / viability at 10 µM / viability at 20 µM: Rattus norvegicus; for viability at 5 µM: PC-12, Dose 5 μM; for viability at 10 µM: PC-12, Dose 10 μM; for viability at 20 µM: PC-12, Dose 20 μM
Experimental: PC 12 cells were seeded in 96-well plates at a density of 8000 cells/well and incubated overnight. […] After incubating under the same conditions for 24 h, 10 μL CCK-8 solution was added to each well. After 2 h incubation, the absorbance of each well was measured at 450 nm using a microplated reader (Multiskan MK-3, Thermo, Waltham, MA, USA).

[3] = Aqueous solubility determination by UV spectrophotometer; type: physicochemical; settings: water, thermodynamic from solid, saturated solution concentration
Experimental: A UV spectrophotometer was used to test the aqueous solubility of target compounds. Each compound to be tested was prepared into solutions with concentrations of 0.2 M, 0.1 M, 0.05 M, 0.025 M, 0.0125 M, 0.00625 M, and 0.003125 M. The optical density (OD) values of the prepared solutions were measured using an ultraviolet spectrophotometer, and concentration–OD-value standard curves were drawn for each compound to be tested. The saturated solutions of the target compounds were diluted by 5000 times and detected using an ultraviolet spectrophotometer to measure the OD values, respectively. The measured OD values were substituted into the corresponding concentration-OD value standard curve to calculate the diluted concentrations, which were multiplied by 5000 to obtain the saturated solution concentrations of the target compounds.

PC 12 cell lines = test: Radiation protection in vitro (CCK-8); type: cell-based, rat; settings: for radiation protection capacity: 10 μM, versus radiation group; for viability at 5 µM / viability at 10 µM / viability at 20 µM: Rattus norvegicus; for viability at 5 µM: PC-12, Dose 5 μM; for viability at 5 µM / viability at 10 µM / Cell viability / viability at 20 µM: radiation 8.0 Gy, PC 12, radiation group 50.22 ± 1.08; for viability at 10 µM: PC-12, Dose 10 μM; for Cell viability: in % (unit assumed); for viability at 20 µM: PC-12, Dose 20 μM
Experimental: The rat adrenal pheochromocytoma cells (PC 12) were used for in vitro studies. A Cell Counting Kit-8 (CCK-8, Applygen Technologies Co., Ltd., Beijing, China) assay was used to determine cell viability. […] Cells were irradiated with dose of 8.0 Gy at a dose rate of 0.8 Gy/min. Then, 10 μL CCK-8 solution was added to all the wells. After 4 h incubation, the absorbance at 450 nm of each well was measured in a multiscan photometer.

[4] = Dose 5 μM, LPS-stimulated RAW264.7
[5] = Dose 10 μM, LPS-stimulated RAW264.7
[6] = Dose 15 μM, LPS-stimulated RAW264.7

Structure (SMILES)	The production of NO [1, 4]	The production of NO [1, 5]	The production of NO [1, 6]	Cell viability ([2]; Dose 5 μM)	Cell viability ([2]; Dose 10 μM)	Cell viability ([2]; Dose 20 μM)	solubility [3]	radiation protection capacity (PC 12 cell lines)	viability at 5 µM (PC 12 cell lines)	viability at 10 µM (PC 12 cell lines)	cell survival rate (anti-oxidant) [2]	Cell viability (PC 12 cell lines; Dose 20 μM)	inhibitory activity against NO production compared with curcumin [1]	viability at 20 µM (PC 12 cell lines)	viability at 5 µM [2]	viability at 10 µM [2]	viability at 20 µM [2]	further results
CCOc1cc(/C=C/C(=O)CC(=O)/C=C/c2cc(CN(C)C)c(O)c(OC)c2)ccc1O [Compound 1a]	44.93 ± 0.35	32.32 ± 1.94	5.77 ± 0.09	66.25 ± 1.36	80.18 ± 1.38	89.36 ± 1.63	201 mg/mL (≈ 457 mM)	a certain degree of radiation protection capacity	60 ± 5.39%	62.9 ± 6.12%	–	–	–	–	–	–	–	anti-oxidant capacity compared with curcumin [2]: better anti-oxidant capacity
COc1cc(/C=C/C(=O)CC(=O)/C=C/c2cc(OC)c(O)c(OC)c2)cc(CN(C)C)c1O [Compound 2a]	41.89 ± 1.95	38.68 ± 0.96	36.24 ± 0.50	56.60 ± 0.54	61.51 ± 1.77	65.65 ± 1.31	148 mg/mL (≈ 325 mM)	–	57.7 ± 4.12%	61.6 ± 4.11%	61%	92.24 ± 6.04	–	–	–	–	–	–
COc1cc(/C=C/C(=O)CC(=O)/C=C/c2ccc(O)cc2C)cc(CN(C)C)c1O [Compound 3a]	32.92 ± 2.00	16.27 ± 1.74	5.29 ± 0.97	61.60 ± 3.89	72.94 ± 2.65	86.90 ± 1.63	255 mg/mL (≈ 623 mM)	–	57.1 ± 3.05%	64.2 ± 0.94%	–	–	better inhibitory activity	69.1 ± 2.51%	–	–	–	–
COc1cc(/C=C/C(=O)CC(=O)/C=C/c2ccc(O)cc2F)cc(CN(C)C)c1O [Compound 4a]	31.54 ± 1.30	20.51 ± 1.88	9.45 ± 1.96	67.52 ± 3.31	75.00 ± 2.39	86.52 ± 5.31	314 mg/mL (≈ 760 mM)	–	56.4 ± 3.51%	61.5 ± 3.74%	–	97.55 ± 3.44	–	–	–	–	–	–
COc1cc(/C=C/C(=O)CC(=O)/C=C/c2ccc(O)c(Cl)c2)cc(CN(C)C)c1O [Compound 7a]	35.35 ± 1.59	16.83 ± 0.42	9.77 ± 0.63	54.89 ± 1.04	62.07 ± 4.16	79.65 ± 3.04	258 mg/mL (≈ 600 mM)	–	62.1 ± 1.39%	65.5 ± 2.03%	62%	–	better inhibitory activity	75.7 ± 2.05%	–	–	–	–
COc1cc(/C=C/C(=O)CC(=O)/C=C/c2cc(C)c(O)c(C)c2)cc(CN(C)C)c1O [Compound 8a]	35.08 ± 2.53	16.57 ± 1.70	4.61 ± 0.29	74.54 ± 1.42	81.49 ± 3.47	87.62 ± 2.98	118 mg/mL (≈ 279 mM)	a certain degree of radiation protection capacity	60.3 ± 1.38%	62.2 ± 0.75%	–	–	better inhibitory activity	81.9 ± 2.94%	–	–	–	anti-oxidant capacity compared with curcumin [2]: better anti-oxidant capacity
COc1cc(O)ccc1/C=C/C(=O)CC(=O)/C=C/c1cc(CN(C)C)c(O)c(OC)c1 [Compound 9a]	36.91 ± 0.59	21.33 ± 0.19	11.29 ± 0.25	63.56 ± 2.88	70.76 ± 3.98	81.08 ± 2.61	167 mg/mL (≈ 393 mM)	–	56.9 ± 1.03%	60.9 ± 1.55%	–	–	–	70.2 ± 2.99%	–	–	–	–
COc1cc(/C=C/C(=O)CC(=O)/C=C/c2ccc(O)cc2)cc(CN(C)C)c1O [Compound 10a]	24.20 ± 1.36	7.81 ± 0.85	3.91 ± 0.22	–	–	–	335 mg/mL (≈ 848 mM)	–	–	–	64%	81.14 ± 3.72	better inhibitory activity	–	54.9 ± 1.34%	64.7 ± 2%	84 ± 4.36%	inhibition at 15 µM ([1]; Mus musculus, at 15 μM, LPS-stimulated RAW264.7, read-out: inhibition rate on NO release): 92%; Cell viability (PC 12 cell lines; Dose 5 μM): 61.98 ± 2.45; Cell viability (PC 12 cell lines; Dose 10 μM): 67.94 ± 4.69
COc1ccc(/C=C/C(=O)CC(=O)/C=C/c2cc(CN(C)C)c(O)c(OC)c2)cc1O [Compound 11a]	35.82 ± 1.34	15.68 ± 3.02	4.63 ± 0.40	–	–	–	132 mg/mL (≈ 311 mM)	a certain degree of radiation protection capacity	–	–	–	106.32 ± 7.58	better inhibitory activity	–	61.5 ± 1.46%	73.7 ± 3.89%	97.3 ± 1.95%	Cell viability (PC 12 cell lines; Dose 5 μM): 60.93 ± 1.64; Cell viability (PC 12 cell lines; Dose 10 μM): 64.92 ± 0.58; cell survival rate (radiation protection) (PC 12 cell lines; at 20 μM, irradiated PC 12): 106%
COc1cc(/C=C/C(=O)CC(=O)/C=C/c2cc(CN(C)C)c(O)c(OC)c2)ccc1O [Compound 15a]	33.79 ± 2.90	17.01 ± 0.60	4.71 ± 0.18	–	–	–	284 mg/mL (≈ 667 mM)	–	–	–	–	–	better inhibitory activity	–	62.2 ± 2.53%	72.5 ± 2.02%	89.22 ± 0.36%	–
